Data taken from patent publication US10829446B2, “Aryl sulfonohydrazides” (MONASH UNIVERSITY, priority 2015, dated 2020).

Tests used:
[1] = test system: Mouse embryonic fibroblasts; assay: Bioassay 1: cellular senescence of mouse embryonic fibroblasts; type: cell-based; settings: for up regulation of β-galactosidase: […] after plating
Protocol: Mouse embryonic fibroblasts are isolated from wild type or Moz heterozygous animals and cultured at 3% oxygen/5% carbon dioxide/92% nitrogen. Cells are plated at a density of 1,020 cells/cm^2 or 2,040 cells/cm^2 or 10,204 cells/cm^2. A reference value for MOZ inhibition is generated through comparison with cells with a complete null mutation of MOZ. The absence of a functional Moz gene leads to senescence in 7-14 days at 3% oxygen.
Cells are plated in triplicate cultures at 10,204 cells/cm^2 in the presence of a test compound. Compounds are tested at 500 nM, 1 μM, 2 μM, 5 μM, 10 μM and 20 μM. Control compounds include those that have a similar structure but show no activity in biochemical assays. After 48 hours, cells are passaged and counted, then replated at 10,204/cm^2. This procedure is continued for 336 hours. The total number of cells produced at each passage is then calculated and compared between treatment groups. […] Cells are analysed by flow cytometry for the absence of markers of apoptosis by staining with propidium iodide and FITC-conjugated annexin V. The level of DNA damaged is assessed by γH2A.X staining, a marker of DNA strand breaks.

[2] = test system: Eμ-Myc pre-leukemia pre B cells; assay: Bioassay 7: pre-B cell number dose response, Eμ-Myc; type: cell-based
Protocol: Pre B cells are isolated from bone marrow according to the criterion: cell surface expression of B220, CD19, but not cKit or IgM. Pre-B cells are cultured on OP9 cells with IL7 in the presence of compounds at concentrations from 0.01 μM to 20 μM in vitro for 4 days. Cell number is then enumerated and an IC50 is calculated.

Cc1cc(-c2ccccc2)cc(C(=O)NNS(=O)(=O)c2ccccc2)c1F [Compound 36]
up regulation of β-galactosidase ([1]; 5 μM): 186%
up regulation of β-galactosidase ([1]; 10 μM): 195%
up regulation of β-galactosidase ([1]; 20 μM): 185%
IC50 ([1]; Mus musculus, Fibroblast, read-out: IC50 (dose at which 50% senescence occur), Bioassay 1): 1600 nM
IC50 ([2]; B-cell, 96 h, Eμ-Myc pre-leukemia pre B cells, 4 days): 421 nM
suppression of pre B cell proliferation in cells expressing the cMyc oncogene ([2]; in words): effective in suppression of pre B cell proliferation
